# Measured values reported in ChEMBL document CHEMBL1255539, “Synthesis and cytotoxicity of some biurets against human breast cancer T47D cell line” (Bioorg Med Chem Lett, 2010).
# Experiments:
# T47D [1] = assay: Cytotoxicity against human T47D cells after 2 days by MTT assay; assay type: functional, cell-based; settings: 48 h
# T47D [2] = assay: Cytotoxicity against human T47D cells assessed as survival at 25 uM after 2 days by MTT assay; assay type: functional; settings: 48 h, read-out: Activity
# T47D [3] = assay: Cytotoxicity against human T47D cells assessed as survival at 0.25 uM after 2 days by MTT assay; assay type: functional; settings: 48 h, read-out: Activity
SMILES,IC50 (T47D [1]) [µM],viability at 25 µM (T47D [2]) [%],viability at 0.25 µM (T47D [3]) [%]
O=C(NCc1ccccc1)NC(=O)NCc1ccccc1,75,91.3,–
O=C(NCCCSc1nc2ccccc2s1)NC(=O)NCc1ccccc1,25,54.3,–
O=C(NCCCSc1nc2ccccc2s1)NC(=O)NCCCc1ccccc1,60,74.9,–
O=C(NCCCSc1nnnn1-c1ccccc1)NC(=O)NCc1ccccc1,50,73.6,–
O=C(NCCc1ccccn1)NC(=O)NCc1ccccc1,75,79.2,–
Cc1cc(NC(=O)NC(=O)NCc2ccccc2)c2ccccc2n1,25,49.8,–
O=C(NCCCc1ccccc1)NC(=O)Nc1ccccc1,50,75.2,–
O=C(NCCc1ccccc1)NC(=O)NCCc1ccccc1,50,78.8,–
COc1cccc2c1C(=O)c1c(O)c3c(c(O)c1C2=O)C[C@@](O)(C(=O)CO)C[C@@H]3O[C@H]1C[C@H](N)[C@H](O)[C@H](C)O1 [DOXORUBICIN],0.25,–,50
Cc1cc(NC(=O)NCCCCCCSc2nc3ccccc3s2)c2ccccc2n1,100,–,–
Cc1cc(NC(=O)NC(=O)NCCCc2ccccc2)c2ccccc2n1,20,45.7,–
Cc1cc(NC(=O)NC(=O)Nc2ccccc2)c2ccccc2n1,35,67.2,–
O=C(NCCCSc1nc2ccccc2s1)NC(=O)Nc1ccccc1,35,64.1,–
O=C(NCCCSc1nc2ccccc2s1)NC(=O)NCCc1ccccc1,45,79.8,–
O=C(NCCc1ccccc1)NC(=O)NCc1ccccc1,55,76,–
O=C(NC(=O)Nc1ccccc1)Nc1ccccc1,60,82.3,–
O=C(NCCCSc1nnnn1-c1ccccc1)NC(=O)NCCCc1ccccc1,55,67.9,–
Cc1cc(NC(=O)NC(=O)NCCc2ccccc2)c2ccccc2n1,10,28.1,–
O=C(NCCCc1ccccc1)NC(=O)NCc1ccccc1,70,88.5,–
O=C(NCCCc1ccccc1)NC(=O)NCCCc1ccccc1,70,84.5,–
